Patent publication US20120328602A1, “COMPOSITIONS AND METHODS FOR TREATING CONDITIONS ASSOCIATED WITH CERAMIDE BIOSYNTHESIS” (priority 2007, published 2012)
Entries after “also recorded” stand apart in the source; their conditions may differ. Where two headings read alike, the source gives them in different places.

Tests used:
[1] = tested on: IL-1β; assay: IL-1β in dorsal horn of lumbar spinal cord by ELISA; type: in vivo, mice; settings: morphine group vs vehicle group, n=10
[2] = tested on: neutral SMase; assay: sphingomyelinase activity in spinal cord tissues, neutral isoform (Amplex Red kit); type: in vivo, mice; settings: repeated morphine vs vehicle (not shown)
Protocol: Sphingomyelinase activity was measure using Amplex® Red Sphingomyelinase Assay Kit (Molecular Probes, Eugene, Oreg.) following manufacturer's instructions. First, spinal cord tissues were homogenized in buffers for each specific assay as previously described (Dobrowsky and Kolesnick, 2001). For the acid isoforms, Na acetate (100 mM and pH 5.0) lysis buffer was used. 2 mM EDTA was added to the lysis buffer for detection of the insoluble isoform. For neutral isoform detection, the tissues were homogenized in Hepes (20 mM, pH 7.4) lysis buffer. The kinetics for sphingomyelinase activity was measured in a fluorescence microplate reader for two hours followed by normalization per protein concentration of the sample. Hydrogen peroxide and sphingomyelinase were used as positive controls.

[3] = tested on: IL-6; assay: IL-6 in dorsal horn of lumbar spinal cord by ELISA; type: in vivo, mice; settings: morphine group vs vehicle group, n=10
[4] = tested on: mice; type: in vivo, male CD-1 mice
[5] = tested on: serine palmitoyl transferase (SPT); assay: serine palmitoyl transferase (SPT) activity; type: in vivo, mice; settings: repeated morphine, tolerant mice vs vehicle
Protocol: SPT activity was determined by measuring the incorporation of [^3H] serine into 3-ketosphinganine following the method previously described (Williams et al., 1984). The results were normalized by the samples' protein concentration.

[6] = tested on: TNF-α; assay: TNF-α in dorsal horn of lumbar spinal cord by ELISA; type: in vivo, mice; settings: morphine group vs vehicle group, n=10
[7] = tested on: ceramide; assay: immunohistochemistry for ceramide in spinal cord (Example 3)
[8] = tested on: manganese superoxide dismutase (MnSOD); assay: measurement of MnSOD enzymatic activity, spectrophotometric; type: in vivo, mice; settings: FB1 0.25-1 mg/kg/d with morphine, n=5
Protocol: Dorsal halves of the spinal cord lumbar region enlargement (L4-L6) were homogenized with 10 mM phosphate buffered saline (pH 7.4) in a Polytron homogenizer and then sonicated on ice for one minute (twenty seconds, three times). The sonicated samples were subsequently centrifuged at 1,100×g for ten minutes. SOD activity was measured in the supernatants as described previously (Wang et al., 2004). A competitive inhibition assay was performed which used xanthine-xanthine oxidase-generated superoxide to reduce nitroblue tetrazolium (NBT) to blue tetrazolium salt. The reaction was performed in sodium carbonate buffer (50 mM, pH 10.1) containing EDTA (0.1 mM), nitroblue tetrazolium (25 μM), xanthine and xanthine-oxidase (0.1 mM and 2 nM respectively; Boehringer, Germany). The rate of NBT reduction was monitored spectrophotometrically (Perkin Elmer Lambda 5 Spectrophotometer, Milan, Italy) at 560 nm. The amount of protein required to inhibit the rate of NTB reduction by 50% was defined as one unit of enzyme activity. Cu/Zn-SOD activity was inhibited by performing the assay in the presence of 2 mM NaCN after pre-incubation for thirty minutes. Enzymatic activity was expressed in units per milligram of protein (Wang et al., 2004).

[9] = tested on: mice; assay: Rotarod motor function test; type: in vivo; settings: myriocin 0.4 mg/kg, FB1 1 mg/kg, D609 40 mg/kg; fifteen, thirty, and sixty minutes after administration; n=4; vs vehicle
Protocol: Mice were trained before experimentation for their ability to remain for one-hundred twenty seconds on a revolving Rotarod apparatus (accelerating units increase from 3.5 to 35 rpm in five minutes). Mice (n=4 per group) were injected with an i.p. injection of the highest dose of FB1 (1 mg/kg), myriocin (0.4 mg/kg), D609 (40 mg/kg) used to block antinociceptive tolerance or its vehicle. Mice (n=4 per group) were tested and examined for motor […] on the Rotarod at fifteen, thirty, and sixty minutes after drug administration as described in the method section. The latency time to fall off the Rotarod was determined. A cut-off time of one-hundred twenty seconds was used.

Structure (SMILES) | IL-1β in dorsal horn tissues [1] | activity of the neutral SMase [2] | IL-6 in dorsal horn tissues [3] | % MPE for acute morphine ([4]; Morphine groups (morphine 50 mg/kg by osmotic minipump), acute morphine 3 mg/kg i.p., tail flick) [% MPE] | % MPE for acute morphine ([4]; control groups (saline minipump), acute morphine 3 mg/kg i.p., tail flick, day six) [% MPE] | enzymatic activity of serine palmytoyl transferase (SPT) [5] | TNF-α in dorsal horn tissues [6] | ceramide staining in dorsal horn, immunohistochemistry ([7]; repeated morphine, day five) | loss of MnSOD enzymatic activity [8] | Rotarod motor function deficits [9] | % MPE for acute morphine ([4]; Mor+FB1 groups, FB1 1 mg/kg/day i.p. for six days with morphine minipump) [% MPE] | % MPE for acute morphine ([4]; control+FB1 groups, FB1 1 mg/kg/day i.p., saline minipump) [% MPE] | ceramide immunostaining ([7]; co-administered with morphine, FB1 1 mg/kg/d, myriocin 0.4 mg/kg/d, D609 40 mg/kg/d)
CN1CC[C@]23c4c5ccc(O)c4O[C@H]2[C@@H](O)C=C[C@H]3[C@H]1C5 [morphine] | increased immunoreactivity; also recorded: significant increase | not changed compared to vehicle | increased immunoreactivity; also recorded: significant increase | 15±4 | 90±5 | increased enzymatic activity | increased immunoreactivity; also recorded: significant increase | appearance of ceramide in the superficial layers of the dorsal horn; also recorded: marked appearance of positive staining for ceramide |  |  |  |  | 
CCCC[C@@H](C)[C@@H](OC(=O)C[C@@H](CC(=O)O)C(=O)O)[C@H](C[C@@H](C)C[C@H](O)CCCC[C@@H](O)C[C@H](O)[C@H](C)N)OC(=O)C[C@@H](CC(=O)O)C(=O)O [FB1, Fumonisin B1] |  |  |  |  |  |  |  |  | restored in a dose-dependent manner | did not show signs of Rotarod deficits | 87±4 | 85±6 | attenuated; also recorded: abolished the presence of positive staining for ceramide
